According to US7153961B2, “Salt and crystalline form thereof of a corticotropin releasing factor receptor antagonist” (Bristol-Myers Squibb Pharma Co., priority 2003, dated 2006):

Columns and labels:
[1] = hygroscopicity (uptake at 90% relative humidity); type: physicochemical
solubility = type: physicochemical; conditions: in e.g., polar solvents, water, glycols, and aqueous mixtures

hygroscopicity (uptake) [1]: less than 2% | solubility (solubility): soluble
SMILES: COCCN(CCOC)c1nc(C)nc2c(-c3ccc(OC)cc3C)c(C)nn12.O=S(=O)(O)c1ccccc1 [polymorph H-1, 4-(bis(2-methoxyethyl)amino)-2,7-dimethyl-8-(2-methyl-4-methoxyphenyl)-[1,5-a]-pyrazolo-1,3,5-triazine benzenesulfonate]
